Where no end group is shown, it is not given here.

One substance from patent US12403184B2, “Compositions and methods for treating neurodegenerative disroders” (priority 2018, dated 2025) can be followed below.

One data set relates to Drp1. As to the kind of experiment: Drp1 mitochondrial level and Drp1 oligomerization in striatum of treated HD mice. It counts as in vivo, mouse. The note with it: for Drp1 translocation to the mitochondria: 1 mg/kg/day. How it is done: Cells were washed with cold phosphate-buffered saline (PBS) and incubated on ice in mitochondrial lysis buffer (250 mM sucrose, 20 mM HEPES-NaOH, pH 7.5, 10 mM KCl, 1.5 mM MgCl2, 1 mM EDTA, 1 mM EGTA, protease inhibitor cocktail, and phosphatase inhibitor cocktail) for 30 min. The cells were scraped and then disrupted 15 times by repeated aspiration through a 25-gauge needle. Mouse brains were minced and homogenized in mitochondrial lysis buffer to release mitochondria. The homogenates were spun at 800×g for 10 min at 4° C., and the resulting supernatants were spun at 12,000×g for 20 min at 4° C. The pellets were washed with lysis buffer and spun at 12,000×g again for 20 min at 4° C. The final pellets were suspended in lysis buffer containing 1% Triton X-100 and were mitochondrial-rich lysate fractions. The mitochondrial protein voltage-dependent anion channel (VDAC) was used as a loading control.
(§1) Protein concentration was measured by protein assay dye reagents (Bio-rad). The protein was resuspended in Laemmli buffer, loaded on SDS-PAGE, and transferred onto nitrocellulose membranes. Membranes were probed with the indicated antibodies, followed by visualization with ECL. Representative blots have been cropped for presentation.
Systemic peptide treatment in HD mice. All randomization and peptide treatments were prepared by an experimenter not associated with behavioral and neuropathology analysis. Male R6/2 mice (Tg) and their age-matched wild-type littermates (Wt) (6-week-old) were implanted with a 28-day osmotic pump (Alzet, Cupertino CA, Model 2004) containing TAT control peptide or DA1 peptide, which delivered peptides at a rate of 1 mg/kg/day. Male YAC128 mice (Tg) and their age-matched wild-type littermates (WT) were treated with TAT control peptide or DA1 peptide (1 mg/kg/day) by Alzet osmotic pump starting from the age of 3 months. The pump was replaced once every month.

In another data set the test system is HdhQ111 cells. As to the kind of experiment: Western blot of mitochondrial biogenesis and electron transport proteins in striatal cells. It counts as cell-based, mouse. How it is done:
Mouse striatal cell lines HdhQ7 and Q111 cells are immortalized from knock-in mice carrying 7 and 111 CAG repeats, respectively, in the mouse htt gene. HdhQ7 and HdhQ111 purchased from CHDI Foundation were cultured in DMEM supplemented with 10% (v/v) heat-inactivated FBS, 1% (v/v) penicillin/streptomycin, and 400 μg/ml G418 at 33° C. with 5% CO2. Cells within 14 passages were used in all experiments.
as §1
A general note: A western blot detects proteins with antibodies after separation by electrophoresis.

For data set [1], the system named is mtDNA. As to the kind of experiment: Measurement of mtDNA content. It counts as cell-based, mouse. Conditions: HdhQ111 cells, relative to TAT. How it is done:
Total DNA was isolated from cells using Blood and Cell culture kit (QIAGEN), and then subject to qPCR using QuantiTect SYBR Green (QIAGEN). Quantitative PCR was performed using nuclear primers (GAPDH or Tert) and mtDNA primers (mt-CO2, mt-ND2, mt-CO1 and D-loop). Three technical replicates were performed for each biological sample, and the mtDNA abundance of each replicate were normalized against nuclear DNA using the 2-ΔΔCT method.

For data set [2], the system named is mtDNA. The data set is described as follows: Measurement of mtDNA lesion by quantitative PCR. It counts as cell-based, mouse. The note with it: HdhQ111 cells, relative to TAT. The source says: Because the movement of the polymerase on the template is blocked at a lesion, qPCR amplification is inversely proportional to the presence of DNA damage. The level of mtDNA lesion will be calculated by comparing the 10 kb mtDNA fragment amplification, as described previously. To correct for the possible variations in the rate of mtDNA replication, the amplification of 10 kb mtDNA fragment was normalized to the 91 bp small mtDNA amplicon. Specifically, Total DNA was isolated as shown above. The amplification profile consisted of a 45-s denaturation at 94° C., 22 cycles of denaturation for 15 s at 94° C., annealing/extension at 64° C. for 12 min, and a final extension at 72° C. for 10 min.

Data set [3] deals with neurons derived from HD patients. The data set is described as follows: Cell death by LDH release in neurons derived from iPS cells. It counts as cell-based, human. As for the experimental part: iPS cells from a normal subject and a HD patient (carrying 41 CAG repeats) were differentiated into neurons using the protocol from our previous studies. Briefly, the iPS cells were plated onto 6-well plates precoated with 2.5% Matrigel and allowed to reach 90% confluence in feeder-free medium. For the first 10 days, the cells were treated with SB431542 (10 μM; Tocris Bioscience) and Noggin (100 ng/ml) in Neural Media (NM) containing Neurobasal and DMEM (1:1), B-27 supplement minus vitamin A (50×, Invitrogen), N2 supplement (100×, Invitrogen), GlutaMax (Invitrogen, 100×), FGF2 ([…]) and EGF ([…]), and 100 units/ml penicillin and 100 μg/ml streptomycin). For the next 10 days, the cells were treated with human recombinant Sonic hedgehog (SHH, 200 ng/ml), DKK1 (100 ng/ml) and BDNF (20 ng/ml), and 10 μM Y27632 (Sigma) in neuronal differentiation medium containing Neurobasal and DMEM (1:3), B27, N2, GlutaMax, and PS. Cells were then switched to treatment with BDNF (20 ng/ml), ascorbic acid (200 μM, Sigma-Aldrich), cAMP (0.5 mM, Sigma-Aldrich), and Y27632 (10 μM) in neuronal differentiation medium. All growth factors were purchased from PeproTech (Rocky Hill, NJ, USA). […]
Cells were treated as described, and cell death was determined by using Cytotoxicity Detection Kit (LDH) according to protocols recommended by the manufacturer (Roche).

Another data set relates to wildtype mice. As to the kind of experiment: Tolerability of DA1 treatment in wildtype mice. The class given is in vivo, mouse. How it is done: Systemic peptide treatment in HD mice. All randomization and peptide treatments were prepared by an experimenter not associated with behavioral and neuropathology analysis. […] […] The pump was replaced once every month.
The body weight and survival rate of HD mice and wild-type littermates were recorded throughout the study period.

In data set [4] the test system is mtDNA. The data set is described as follows: mtDNA content in plasma of YAC128 mice by qPCR. The class given is in vivo, mouse. The note with it: YAC128 mice at the age of 6 months. How it is done:
For isolation of DNA from mouse plasma, the QIAamp DNA Blood Mini Kit (QIAGEN) was used. Briefly, 100-200 μl mouse plasma was subjected to total DNA extraction. Then the eluted DNA was diluted (1:5) to perform the qPCR experiment.
Background: Quantitative PCR measures a nucleic acid by following its amplification.

For data set [5] the following is noted: 1 mg/kg/day, administered subcutaneously.
[6] abbreviates: HdhQ111 cells, 1 μM/day for 4 days.
Where [7] appears, read: 1 mg/kg/day for 30 days, Alzet mini pumps, vs saline.

With “YGRKKRRQRRRGGEDKRKT-NH2 [DA1, YGRKKRRQRRR-GG-EDKRKT-NH2]”, the “Drp1 translocation to the mitochondria” value in the data set with Drp1 (striatum of HD R6/2 mice) was “abrogated”. Also, in the data set with Drp1 (striatum of HD R6/2 mice, 12 weeks old), the Drp1 polymerization result is recorded as “abrogated”. In the data set with Drp1 (striatum of HD YAC128 mice), the “Drp1 translocation to the mitochondria” value is reported as “abrogated”. Besides, in the data set on Drp1 (striatum of HD YAC128 mice, 12 months old), the Drp1 polymerization entry is given as “abrogated”. For the same substance, the “elevation of TFAM level by DA1 treatment” value with HdhQ111 cells (HD mutant cells with ATAD3A knockdown (siRNA)) was “ATAD3A knockdown abolished”. Moreover, the “nuclear-encoded mitochondrial respiratory chain components” value in the data set on HdhQ111 cells (HdhQ111 cells) was “no effect”. Further, in the data set on HdhQ111 cells (setting [6]), the PGC1α level result is listed as “restored”, the TFAM level result is “restored” and the mtCO2 protein level result was “corrected”. Besides, the mtDNA copy number result in the data set on mtDNA [1] is on record as “increased”. The mtDNA lesion result in the data set on mtDNA [2] is “diminished”. Besides, the neuronal survival result in data set [3] (cells derived from iPS cells of normal subject) is listed as “no observed effects”. Further, the “cell death (LDH release)” value in data set [3] (neurons derived from HD patients, BDNF withdrawal for 24 h) is listed as “decreased”. The lifespan entry in the data set with wildtype mice is “no effect”. Further, in the data set with wildtype mice (setting [7]), the “relative weight (spleen/body weight)” value is “no effects” and the spleen morphology result is given as “no effects”. Besides, in the data set on wildtype mice (1 mg/kg/day subcutaneously), the “visible side effects in organs” value was “did not cause” and the weight loss result is listed as “did not cause”. Also, the behavioral status result in the data set with wildtype mice (sustained treatment) was “minor effects”. The “increase of plasma mtDNA content” value with mtDNA [4] is given as “abolished”. Moreover, in data set [5], the brain entry entry is reported as “entered the brain”.
